Source: patent publication US20240081326A1, “Use of a Biobased Composition Comprising Ferulated Chitosan as a Pesticide Safener” (FYTEKO SA, priority 2020, published 2024)

Test system: Lemna minor
Assay: Lemna minor in vitro relative growth rate and survival with herbicide Profoxydim
Assay type: in vivo
Settings: one week; for relative growth rate (RGR) of Lemna minor plants, substance alone: 10 mg/L in Hoagland medium
Procedure: The experiment was carried out in Lemna minor growing under in vitro conditions. A stock culture of Lemna minor was maintained on modified Hoagland medium in a controlled environment. […] An experiment was conducted, using fronds free from any visible chlorosis which were taken from the stock cultures and exposed to diverse treatments. For each treatment, six repetitions with three fronds per repetition as the initial frond number were used. […] The multiplate was covered with a transparent cover to prevent evaporation. The relative growth was calculated after one week of incubation in the described conditions, and the survival rate was evaluated.

| Structure (SMILES) | relative growth rate (RGR) of Lemna minor plants, substance alone | protective effect on relative growth rate in combination with the herbicide Profoxydim (10 mg/L with 10 mg/L Profoxydim) |
| --- | --- | --- |
| CCCC(=NOCC(C)Oc1ccc(Cl)cc1)C1=C(O)CC(C2CCCSC2)CC1=O (stereo not drawn) [Profoxydim] | drastically reduced the RGR |  |
| COc1cc(/C=C/C(=O)O)ccc1O [ferulic acid] | hindering Lemna minor growth | Neither chitosan nor ferulic acid in combination with the herbicide showed this protective effect |
